From patent US10072011B2, “Substituted bridged urea analogs as sirtuin modulators” (GlaxoSmithKline Intellectual Property (No.2) Limited, priority 2014, dated 2018) come the findings set out here.

Read-outs that look alike come from different tables or passages of the source.

The target of the test is T1, SIRT1 (Homo sapiens, UniProt Q96EB6).
T1 sequence (Q96EB6 1-747): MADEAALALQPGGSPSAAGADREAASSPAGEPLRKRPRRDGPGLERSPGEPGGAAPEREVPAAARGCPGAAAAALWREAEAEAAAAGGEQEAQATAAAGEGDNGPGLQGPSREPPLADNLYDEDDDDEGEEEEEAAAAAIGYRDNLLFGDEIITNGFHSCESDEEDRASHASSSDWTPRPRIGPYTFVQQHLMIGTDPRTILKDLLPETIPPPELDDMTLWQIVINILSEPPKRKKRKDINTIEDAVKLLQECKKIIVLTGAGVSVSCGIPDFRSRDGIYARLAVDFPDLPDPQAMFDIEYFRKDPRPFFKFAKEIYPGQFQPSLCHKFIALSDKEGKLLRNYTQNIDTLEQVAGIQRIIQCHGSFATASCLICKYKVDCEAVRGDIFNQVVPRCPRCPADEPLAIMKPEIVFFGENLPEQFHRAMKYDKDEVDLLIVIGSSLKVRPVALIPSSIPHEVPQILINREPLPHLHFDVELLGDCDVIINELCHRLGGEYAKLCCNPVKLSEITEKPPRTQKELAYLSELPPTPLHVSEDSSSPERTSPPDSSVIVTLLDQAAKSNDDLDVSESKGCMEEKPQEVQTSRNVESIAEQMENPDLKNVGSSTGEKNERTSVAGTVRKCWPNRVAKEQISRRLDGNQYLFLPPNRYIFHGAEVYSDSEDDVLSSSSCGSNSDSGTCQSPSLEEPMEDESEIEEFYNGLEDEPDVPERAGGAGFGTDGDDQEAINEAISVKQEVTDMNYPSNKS
Description: Trp mass spectrometry assay of SIRT1 activation (Ac-R-H-K-K(Ac)-W-NH2 peptide). The settings on record: for Emax: 25 min, read-out: TRP MAX RESP (percent maximum fold activation). The format is biochemical. Put shortly:
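N-terminal His-tagged human SIRT1, expressed in BL21(DE3) and purified, was incubated 25 min with an acetylated Trp peptide and NAD plus test compound at varying concentrations, then quenched with formic acid. OAADPR or deacetylated peptide was quantified by mass spectrometry versus compound-free control; EC1.5 is the concentration giving 50% activity increase, with percent maximum activation.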

[1] abbreviates: Trp peptide 0.5 μM, 120 μM βNAD+, 10 nM SIRT1, 25 min at 25° C., relative to control (100%).
Setting [2] is: Trp peptide 0.5 μM, 120 μM βNAD+, 10 nM SIRT1, 25 min at 25° C.

In the case of `O=C(NCC1CC1)c1ccc2c(n1)N(C(=O)Nc1cccnn1)[C@H]1CCN2C1` [Example 96, (4S)—N7-(cyclopropylmethyl)-N5-(pyridazin-3-yl)-3,4-dihydro-1,4-methanopyrido[2,3-b][1,4]diazepine-5,7(2H)-dicarboxamide], under setting [1], the Emax was greater than 150%. For the same compound, the “TRP Activity (EC1.5, concentration of test compound that results in 150% activation of SIRT1)” value under setting [2] is given as “A (EC1.5<1 μM)”.

As for `COc1ccnc(NC(=O)N2c3nc(C(=O)NCC(F)(F)F)ccc3N3CC[C@H]2C3)c1` [Example 136, (4S)—N5-(4-methoxypyridin-2-yl)-N7-(2,2,2-trifluoroethyl)-3,4-dihydro-1,4-methanopyrido[2,3-b][1,4]diazepine-5,7(2H)-dicarboxamide], the Emax under setting [1] is greater than 150%. Under setting [2], the “TRP Activity (EC1.5, concentration of test compound that results in 150% activation of SIRT1)” value is given as “A (EC1.5<1 μM)”.

Turning to `Cc1ccc2c(NC(=O)N3c4nc(C(=O)N[C@H](CO)C(F)(F)F)ccc4N4CC[C@H]3C4)n[nH]c2n1` [Example 139, (4S)—N5-(6-methyl-1H-pyrazolo[3,4-b]pyridin-3-yl)-N7-((R)-1,1,1-trifluoro-3-hydroxypropan-2-yl)-3,4-dihydro-1,4-methanopyrido[2,3-b][1,4]diazepine-5,7(2H)-dicarboxamide], the Emax under setting [1] is greater than 150%. Under setting [2], the “TRP Activity (EC1.5, concentration of test compound that results in 150% activation of SIRT1)” value is on record as “A (EC1.5<1 μM)”.

As for `Cc1ccc2c(NC(=O)N3c4nc(C(=O)NC[C@@H](N)C(F)(F)F)ccc4N4CC[C@H]3C4)n[nH]c2n1` (single isomer, unassigned) [Example 233], under setting [1], the Emax is greater than 150%.

As to `NC(CNC(=O)c1ccc2c(n1)N(C(=O)Nc1ccccn1)[C@H]1CCN2C1)C(F)(F)F` (single isomer, unassigned) [Example 249], the “TRP Activity (EC1.5, concentration of test compound that results in 150% activation of SIRT1)” value under setting [2] is on record as “B (EC1.5 1-25 μM)”.

For `O=C(NCC(F)(F)F)c1ccc2c(n1)N(C(=O)Nc1ncc3cc[nH]c3n1)[C@H]1CCN2C1` [Example 93, (4S)—N5-(7H-pyrrolo[2,3-d]pyrimidin-2-yl)-N7-(2,2,2-trifluoroethyl)-3,4-dihydro-1,4-methanopyrido[2,3-b][1,4]diazepine-5,7(2H)-dicarboxamide], the Emax was greater than 150%. Further, the “TRP Activity (EC1.5, concentration of test compound that results in 150% activation of SIRT1)” value under setting [2] was “A (EC1.5<1 μM)”.

As to `Cc1ncc(-c2ccnc(NC(=O)N3c4nc(C(=O)N[C@@H](C)C(F)(F)F)ccc4N4CC[C@H]3C4)c2)o1` [Example 126, (4S)—N5-(4-(2-methyloxazol-5-yl)pyridin-2-yl)-N7-((S)-1,1,1-trifluoropropan-2-yl)-3,4-dihydro-1,4-methanopyrido[2,3-b][1,4]diazepine-5,7(2H)-dicarboxamide], the Emax under setting [1] was greater than 150%. In addition, the “TRP Activity (EC1.5, concentration of test compound that results in 150% activation of SIRT1)” value under setting [2] was “B (EC1.5 1-25 μM)”.

As to `Cc1nc(NC(=O)N2c3nc(C(=O)N[C@H](C)C(F)(F)F)ccc3N3CC[C@H]2C3)ccc1F` [Example 269, (4S)—N5-(5-fluoro-6-methylpyridin-2-yl)-N7-((R)-1,1,1-trifluoropropan-2-yl)-3,4-dihydro-1,4-methanopyrido[2,3-b][1,4]diazepine-5,7(2H)-dicarboxamide], the Emax under setting [1] was greater than 150%. Also, under setting [2], the “TRP Activity (EC1.5, concentration of test compound that results in 150% activation of SIRT1)” value was “A (EC1.5<1 μM)”.

In the case of `O=C(N[C@@H](CO)C(F)(F)F)c1ccc2c(n1)N(C(=O)Nc1cccnc1)[C@H]1CCN2C1` [Example 224, (4S)—N5-(pyridin-3-yl)-N7-((S)-1,1,1-trifluoro-3-hydroxypropan-2-yl)-3,4-dihydro-1,4-methanopyrido[2,3-b][1,4]diazepine-5,7(2H)-dicarboxamide], under setting [1], the Emax is greater than 150%. Moreover, under setting [2], the “TRP Activity (EC1.5, concentration of test compound that results in 150% activation of SIRT1)” value is reported as “B (EC1.5 1-25 μM)”.

On to `C[C@@H](NC(=O)c1ccc2c(n1)N(C(=O)Nc1cnc(OC[C@H](O)CO)cn1)[C@H]1CCN2C1)C(F)(F)F` [Example 194, (4S)—N5-(5-((R)-2,3-dihydroxypropoxy)pyrazin-2-yl)-N7-((R)-1,1,1-trifluoropropan-2-yl)-3,4-dihydro-1,4-methanopyrido[2,3-b][1,4]diazepine-5,7(2H)-dicarboxamide], for which the Emax under setting [1] was greater than 150%. Besides, the “TRP Activity (EC1.5, concentration of test compound that results in 150% activation of SIRT1)” value under setting [2] was “A (EC1.5<1 μM)”.

With `C[C@@H](NC(=O)c1ccc2c(n1)N(C(=O)Nc1ccccn1)[C@H]1CCN2C1)C(F)(F)F` [Example 19, (4S)—N5-(pyridin-2-yl)-N7-((R)-1,1,1-trifluoropropan-2-yl)-3,4-dihydro-1,4-methanopyrido[2,3-b][1,4]diazepine-5,7(2H)-dicarboxamide], the Emax under setting [1] is greater than 150%. Further, the “TRP Activity (EC1.5, concentration of test compound that results in 150% activation of SIRT1)” value under setting [2] is reported as “A (EC1.5<1 μM)”.

Take `C#Cc1ccnc(NC(=O)N2c3nc(C(=O)N[C@H](C)C(F)(F)F)ccc3N3CC[C@H]2C3)c1` [Example 299, (4S)—N5-(4-ethynylpyridin-2-yl)-N7-((R)-1,1,1-trifluoropropan-2-yl)-3,4-dihydro-1,4-methanopyrido[2,3-b][1,4]diazepine-5,7(2H)-dicarboxamide]: the Emax under setting [1] is less than 150%. In addition, under setting [2], the “TRP Activity (EC1.5, concentration of test compound that results in 150% activation of SIRT1)” value was “A (EC1.5<1 μM)”.

For `O=C(NCc1cccnc1)c1ccc2c(n1)N(C(=O)Nc1cc(OC[C@H](O)CO)ccn1)[C@H]1CCN2C1` [Example 226, (4S)—N5-(4-((R)-2,3-dihydroxypropoxy)pyridin-2-yl)-N7-(pyridin-3-ylmethyl)-3,4-dihydro-1,4-methanopyrido[2,3-b][1,4]diazepine-5,7(2H)-dicarboxamide], under setting [1], the Emax was greater than 150%. Besides, the “TRP Activity (EC1.5, concentration of test compound that results in 150% activation of SIRT1)” value under setting [2] is on record as “B (EC1.5 1-25 μM)”.

As to `Cn1cccc(NC(=O)N2c3nc(C(=O)NCC(F)(F)F)ccc3N3CC[C@H]2C3)c1=O` [Example 23, (4S)—N5-(1-methyl-2-oxo-1,2-dihydropyridin-3-yl)-N7-(2,2,2-trifluoroethyl)-3,4-dihydro-1,4-methanopyrido[2,3-b][1,4]diazepine-5,7(2H)-dicarboxamide], under setting [1], the Emax was greater than 150%. Under setting [2], the “TRP Activity (EC1.5, concentration of test compound that results in 150% activation of SIRT1)” value is reported as “A (EC1.5<1 μM)”.

As for `C[Si](C)(C)CNC(=O)c1ccc2c(n1)N(C(=O)Nc1ccccn1)[C@H]1CCN2C1` [Example 108, (4S)—N5-(pyridin-2-yl)-N7-((trimethylsilyl)methyl)-3,4-dihydro-1,4-methanopyrido[2,3-b][1,4]diazepine-5,7(2H)-dicarboxamide], under setting [1], the Emax was greater than 150%. The “TRP Activity (EC1.5, concentration of test compound that results in 150% activation of SIRT1)” value under setting [2] is listed as “A (EC1.5<1 μM)”.

Turning to `CC(C)(C)NC(=O)c1ccc2c(n1)N(C(=O)Nc1ccccn1)[C@H]1CCN2C1` [Example 48, (4S)—N7-(tert-butyl)-N5-(pyridin-2-yl)-3,4-dihydro-1,4-methanopyrido[2,3-b][1,4]diazepine-5,7(2H)-dicarboxamide], the Emax under setting [1] is greater than 150%. Besides, the “TRP Activity (EC1.5, concentration of test compound that results in 150% activation of SIRT1)” value under setting [2] is reported as “B (EC1.5 1-25 μM)”.

Turning to `O=C(NC1CCCC1)c1ccc2c(n1)N(C(=O)Nc1ccccn1)[C@H]1CCN2C1` [Example 35, (4S)—N7-cyclopentyl-N5-(pyridin-2-yl)-3,4-dihydro-1,4-methanopyrido[2,3-b][1,4]diazepine-5,7(2H)-dicarboxamide], the Emax under setting [1] is greater than 150%. Also, the “TRP Activity (EC1.5, concentration of test compound that results in 150% activation of SIRT1)” value under setting [2] is on record as “A (EC1.5<1 μM)”.

`O=C(N[C@H](CO)C(F)(F)F)c1ccc2c(n1)N(C(=O)Nc1cc3c(cn1)OCCC3)[C@H]1CCN2C1` [Example 159]: the Emax under setting [1] was greater than 150%. Moreover, the “TRP Activity (EC1.5, concentration of test compound that results in 150% activation of SIRT1)” value under setting [2] is on record as “A (EC1.5<1 μM)”.

`CC(NC(=O)c1ccc2c(n1)N(C(=O)Nc1ccccn1)[C@H]1CCN2C1)C1CC1` (single isomer, unassigned) [Example 101]: the “TRP Activity (EC1.5, concentration of test compound that results in 150% activation of SIRT1)” value under setting [2] was “A (EC1.5<1 μM)”.

For `O=C(NCc1ccc(F)cc1)c1ccc2c(n1)N(C(=O)Nc1cc(OC[C@H](O)CO)ccn1)[C@H]1CCN2C1` [Example 240, (4S)—N5-(4-((R)-2,3-dihydroxypropoxy)pyridin-2-yl)-N7-(4-fluorobenzyl)-3,4-dihydro-1,4-methanopyrido[2,3-b][1,4]diazepine-5,7(2H)-dicarboxamide], the Emax under setting [1] was greater than 150%. Further, under setting [2], the “TRP Activity (EC1.5, concentration of test compound that results in 150% activation of SIRT1)” value is given as “A (EC1.5<1 μM)”.
